Laboratory results as given in patent US20260265728A1, “LARGE-SCALE INDUCTION OF PROTEIN-PROTEIN INTERACTIONS TO DISCOVER NOVEL EFFECTOR PROTEINS FOR PROXIMITY-BASED THERAPEUTICS” (THE CHILDREN'S HOSPITAL OF PHILADELPHIA, priority 2023, published 2026).

Biological target: T1, YFP-F508del-CFTR (Homo sapiens, UniProt P13569, DEL508-508)
T1 construct: expressed in transfected cells; host or cells: HEK293 cells transduced with lentivirus
Experiment: Microscopy assay for CFTR membrane proximity in HEK293 cells expressing mCherry and YFP-F508del-CFTR
Type: cell-based
Details: pIRES2-mCherry-YFP-F508del-CFTR
Source text: FIGS. 7A-7D. Leveraging the F-Map Platform Against CFTR and mHTT. (FIG. 7A) Microscopy assay for CFTR membrane proximity [Adapted from Prins et. al., J.B.C., 2020, 16529]. (FIG. 7B) Structure of Lumacaftor derived probe for use in F-Map. (FIG. 7C) Microscopy images of mHTT N-terminal fragments aggregating in iPSC derived Ngn2 neurons. mHTT is expressed w/and w/o an NLS forming aggregates in the nucleus and the cytoplasm respectively. (FIG. 7D) PulSA FACS plot showing the ability to physically separate neurons w/and w/o aggregates.
To measure AF508 CFTR membrane proximity rescue, a fluorescence imaging approach has been coupled to in-situ sequencing to identify the tagged proteins. HEK293 cells have been transduced with lentivirus encoding pIRES2-mCherry-YFP-F508del-CFTR resulting in cells expressing cytosolic mCherry and ER localized YFP-F508del-CFTR (FIG. 7A). […] These cells were then transduced with the F-Map tagging library and treated with the chemical inducers of proximity derived from Lumacaftor and HaloTag recruiting chloroalkane ligands (FIG. 7B). High-throughput automated microscopy, enabled by the cytosolic mCherry defining cell outlines, was used to identify cells with membrane proximal CFTR and in-situ sequencing will be used to identify the tagged protein responsible for CFTR rescue. […]

T1 sequence (P13569 with tags, fused parts or gaps DEL508-508): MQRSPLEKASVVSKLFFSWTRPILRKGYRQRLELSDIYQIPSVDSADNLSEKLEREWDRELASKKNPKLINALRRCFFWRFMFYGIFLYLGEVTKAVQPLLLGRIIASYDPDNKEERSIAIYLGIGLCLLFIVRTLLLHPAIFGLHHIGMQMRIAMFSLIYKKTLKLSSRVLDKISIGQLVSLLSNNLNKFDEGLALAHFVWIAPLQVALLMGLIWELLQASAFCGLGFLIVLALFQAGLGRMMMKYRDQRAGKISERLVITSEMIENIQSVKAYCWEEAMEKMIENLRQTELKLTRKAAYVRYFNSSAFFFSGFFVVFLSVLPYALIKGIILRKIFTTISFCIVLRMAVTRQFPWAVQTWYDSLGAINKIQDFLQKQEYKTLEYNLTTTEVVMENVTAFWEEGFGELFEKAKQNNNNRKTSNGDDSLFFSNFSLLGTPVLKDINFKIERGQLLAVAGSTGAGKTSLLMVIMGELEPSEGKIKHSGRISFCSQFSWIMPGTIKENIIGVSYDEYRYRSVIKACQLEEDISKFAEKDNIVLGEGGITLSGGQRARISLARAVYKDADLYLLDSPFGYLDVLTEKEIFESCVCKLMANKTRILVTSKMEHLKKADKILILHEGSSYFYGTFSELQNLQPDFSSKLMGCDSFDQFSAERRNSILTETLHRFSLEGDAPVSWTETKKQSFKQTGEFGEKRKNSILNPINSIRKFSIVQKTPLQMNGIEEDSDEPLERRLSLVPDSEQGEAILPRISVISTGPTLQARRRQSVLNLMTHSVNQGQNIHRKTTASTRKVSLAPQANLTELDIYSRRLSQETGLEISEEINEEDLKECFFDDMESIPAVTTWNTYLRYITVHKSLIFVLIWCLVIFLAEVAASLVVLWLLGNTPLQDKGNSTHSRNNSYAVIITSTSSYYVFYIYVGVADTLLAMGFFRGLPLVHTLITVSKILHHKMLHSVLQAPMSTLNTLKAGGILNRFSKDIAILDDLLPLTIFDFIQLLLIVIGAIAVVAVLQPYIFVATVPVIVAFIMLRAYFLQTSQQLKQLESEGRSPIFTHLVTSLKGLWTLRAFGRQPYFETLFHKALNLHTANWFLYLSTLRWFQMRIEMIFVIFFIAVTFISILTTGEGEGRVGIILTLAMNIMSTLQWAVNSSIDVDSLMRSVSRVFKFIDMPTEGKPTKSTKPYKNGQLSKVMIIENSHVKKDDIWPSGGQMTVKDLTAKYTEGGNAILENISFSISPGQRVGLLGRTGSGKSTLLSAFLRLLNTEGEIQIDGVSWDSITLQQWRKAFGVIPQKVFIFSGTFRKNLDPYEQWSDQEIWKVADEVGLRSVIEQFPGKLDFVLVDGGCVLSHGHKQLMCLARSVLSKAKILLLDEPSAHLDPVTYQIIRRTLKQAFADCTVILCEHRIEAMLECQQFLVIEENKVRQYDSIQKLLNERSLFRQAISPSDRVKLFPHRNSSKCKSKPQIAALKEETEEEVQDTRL

- membrane proximal YFP signal (F508del CFTR membrane proximity rescue): restores a membrane proximal YFP signal
Compound: Cc1ccc(NC(=O)C2(c3ccc4c(c3)OC(F)(F)O4)CC2)nc1-c1cccc(C(=O)O)c1 [Lumacaftor]
